Reference: patent publication US7265220B2, “Amino acid derivatives, method for production thereof and pharmaceutical compositions comprising said derivative” (Les Laboratories Servier, priority 2002, dated 2007)
pIC50: −log10 of the molar value. Structures can show the parent of a compound that is named as a salt.

Tests used:
Type in all cases: biochemical
[1] = target: T1, purified human activated protein C (Homo sapiens, UniProt P04070); test: Inhibition of purified human activated protein C, chromogenic substrate S2366; settings: activated protein C 2 nM, inhibitor preincubated 20° C., 30 minutes, substrate pyroGlu-Pro-Arg-pNA 0.39 mM, read at 405 nm; read-out: IC50 with respect to activated protein C
T1 construct: purchased Diagnostica Stago
T1 sequence (P04070 212-461 limits assumed): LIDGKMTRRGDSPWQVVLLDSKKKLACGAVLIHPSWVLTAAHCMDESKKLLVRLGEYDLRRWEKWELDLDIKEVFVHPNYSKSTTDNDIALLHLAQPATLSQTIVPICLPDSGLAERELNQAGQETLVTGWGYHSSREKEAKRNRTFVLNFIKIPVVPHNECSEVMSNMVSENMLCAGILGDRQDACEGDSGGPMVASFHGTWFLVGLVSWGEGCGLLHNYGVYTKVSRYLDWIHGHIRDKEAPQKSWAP
T1 sequence (P04070 43-197 limits assumed): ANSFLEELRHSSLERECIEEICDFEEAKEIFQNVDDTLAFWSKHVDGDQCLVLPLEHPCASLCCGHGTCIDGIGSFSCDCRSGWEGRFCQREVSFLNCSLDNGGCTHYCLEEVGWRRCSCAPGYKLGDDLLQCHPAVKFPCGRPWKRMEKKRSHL
Description: (§1) The inhibitors, enzymes and substrates are diluted in the same buffer (0.01 mM phosphate buffer pH 7.4 containing 0.12M sodium chloride and 0.05% bovine serum albumin in the case of thrombin and 50 mM TRIS-HCl buffer pH 7.4 containing 0.12M sodium chloride, 3 mM calcium chloride and 0.05% bovine serum albumin in the case of activated protein C and plasmin) and then dispensed in a volume of 50 μl onto a polystyrene microplate.

purified human plasmin = target: T2, purified human plasmin (Homo sapiens, UniProt P00747); test: Inhibition of purified human plasmin, chromogenic substrate S2403 (selectivity); settings: plasmin 2 nM, substrate <Glu-Phe-Lys-pNA 0.37 mM, read at 405 nm; read-out: IC50 with respect to plasmin
T2 construct: purified human plasmin (2 nM, Stago); purchased Stago
T2 sequence (P00747 581-810 limits assumed): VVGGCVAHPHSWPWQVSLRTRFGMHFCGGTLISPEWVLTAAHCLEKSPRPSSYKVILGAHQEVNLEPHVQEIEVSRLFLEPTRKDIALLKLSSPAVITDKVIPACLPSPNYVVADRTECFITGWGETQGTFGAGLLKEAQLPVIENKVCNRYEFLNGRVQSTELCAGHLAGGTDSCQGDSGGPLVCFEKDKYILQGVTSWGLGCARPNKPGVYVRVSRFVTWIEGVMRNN
T2 sequence (P00747 97-580 limits assumed): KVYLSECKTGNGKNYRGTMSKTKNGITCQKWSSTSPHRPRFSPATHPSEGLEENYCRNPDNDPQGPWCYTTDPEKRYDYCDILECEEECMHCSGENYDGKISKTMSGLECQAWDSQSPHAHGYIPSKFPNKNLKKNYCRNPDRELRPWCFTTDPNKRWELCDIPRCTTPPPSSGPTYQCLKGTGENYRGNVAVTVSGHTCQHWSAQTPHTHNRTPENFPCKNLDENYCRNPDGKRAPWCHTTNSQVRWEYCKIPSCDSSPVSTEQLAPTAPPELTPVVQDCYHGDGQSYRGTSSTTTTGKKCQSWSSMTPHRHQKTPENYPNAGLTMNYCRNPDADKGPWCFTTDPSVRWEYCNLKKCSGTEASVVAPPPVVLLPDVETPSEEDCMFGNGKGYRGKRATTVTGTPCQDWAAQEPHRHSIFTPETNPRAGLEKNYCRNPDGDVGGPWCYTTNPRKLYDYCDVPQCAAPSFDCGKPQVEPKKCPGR
Description: In order to assess in vitro the inhibitory activity of products of the invention on purified human activated protein C (Diagnostica Stago), the chromogenic substrate pyroGlu-Pro-Arg-pNA (0.39 mM, S2366, Chromogenix) was added to a given amount of activated protein C (2 nM) previously incubated with or without the inhibitor under test (20° C., 30 minutes).
In order to assess in vitro the selectivity with respect to thrombin and plasmin, the same protocol was applied to purified human thrombin (0.7 nM, Sigma) and to purified human plasmin (2 nM, Stago), using as substrates purified human fibrinogen (6 μM, Enzyme Research Laboratories) and the paracitroanilide peptide <Glu-Phe-Lys-pNA (0.37 mM, S2403, Chromogenix), respectively.
The inhibitors, enzymes and substrates are diluted in the same buffer ([…] phosphate buffer pH 7.4 containing 0.12M sodium chloride and 0.05% bovine serum albumin in the case of thrombin and 50 mM TRIS-HCl buffer pH 7.4 containing 0.12M sodium chloride, 3 mM calcium chloride and 0.05% bovine serum albumin in the case of activated protein C and plasmin) and then dispensed in a volume of 50 μl onto a polystyrene microplate.
The paranitroanilide liberated or the fibrin formed by the action of the serine protease is measured spectrophotometrically at 405 nm after reacting for from 10 to 30 minutes at 20° C.

purified human thrombin = purified human thrombin (Homo sapiens, UniProt P00734); test: Inhibition of purified human thrombin, fibrinogen substrate (selectivity); settings: thrombin 0.7 nM, substrate human fibrinogen 6 μM, fibrin formed read at 405 nm; read-out: IC50 with respect to thrombin
Description: as §1

pIC50 [1]: 6.09
pIC50 (purified human plasmin): 5.96
pIC50 (purified human thrombin): < 4.48
SMILES: N=C(N)c1ccc(CNC(=O)C2(NC(=O)[C@H](NCC(=O)O)C3CCCCC3)Cc3ccccc3C2)cc1 [Example 1, {[(1R)-2-({2-[({4-Amidinobenzyl}-amino)-carbonyl]-indan-2-yl}-amino)-1-cyclohexyl-2-oxoethyl]-amino}acetic acid hydrochloride]
